PubChem BioAssay (NCI)
Several values for one entry are separate records, joined by “and”; a condition that tells them apart may be missing. Identical values can stand only once.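 Each compound was tested at five concentrations against cells in 96-well plates for 48 hours. Abbreviation: GI50, concentration required for 50% inhibition of growth. The concentration for full growth arrest is given as TGI.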

Tests used:
Experiment in all cases: DTP human tumour cell line panel, 48 h
[1] = tested on: HCC-2998 colon
[2] = tested on: HOP-62 NSCLC
[3] = tested on: MCF7 breast
[4] = tested on: MDA-MB-231 breast
[5] = tested on: NCI-H23 lung
[6] = tested on: OVCAR-3 ovarian
[7] = tested on: SF-295 CNS
[8] = tested on: SN12C renal
[9] = tested on: U251 CNS
[10] = tested on: UO-31 renal

SMILES | GI50 [1] [µM] | TGI [1] | GI50 [2] [nM] | TGI [2] | GI50 [3] [nM] | TGI [3] [µM] | GI50 [4] [µM] | TGI [4] | GI50 [5] | TGI [5] | GI50 [6] [nM] | TGI [6] [µM] | GI50 [7] | TGI [7] | GI50 [8] [nM] | TGI [8] [µM] | GI50 [9] | TGI [9] | GI50 [10] [µM] | TGI [10]
C[C@@H](O)[C@H](NC(=O)N[C@@H](CC(N)=O)c1nc([C@@H](N)CO)no1)C(=O)O | > 100 | > 100 µM | > 100000 | > 100 µM | > 100000 | > 100 | > 100 | > 100 µM | > 100000 nM | > 100 µM | > 100000 | > 100 | > 100000 nM | > 100 µM | > 100000 | > 100 | > 100000 nM | > 100 µM | > 100 | > 100 µM
Cc1cc(=O)oc2c(C)c(O)ccc12 | – | > 100 µM | – | > 100 µM | – | > 100 | – | > 100 µM | – | > 100 µM | – | > 100 | – | > 100 µM | – | > 100 | – | > 100 µM | – | > 100 µM
CS(=O)(=O)CCNCc1ccc(-c2ccc3ncnc(Nc4ccc(OCc5ccccc5)c(Br)c4)c3c2)o1 | 4.56 | 9.11 µM | 11200 | > 25 µM | 7070 | 24.6 | 4.85 | 9.87 µM | 10500 nM | > 25 µM | 9220 | > 25 | 5260 nM | 12.8 µM | 11900 | > 25 | 7120 nM | > 23 µM | 3.64 | 11.5 µM
C=C1C(=O)OC2C1CCC(C)C1C=CC(=O)C12C (centres undefined) | – | 26.6 µM | – | 41.1 µM | – | 16.5 | – | 4.83 µM | – | 10.2 µM | – | 3.37 | – | 18.1 µM | – | 13.5 | – | 29.5 µM | – | 9.26 µM
COc1cc2c(cc1OC)-c1ccc3cc4c(cc3c1N(CCCn1ccnc1)C2)OCO4 | 10.9 | 24.4 µM | 2030 | 13.6 µM | 364 | 74.1 | 3.34 | 18.8 µM | 2230 nM | 21.3 µM | 2260 | 5.97 | 2800 nM | 75.6 µM | 382 | 16.9 | 1020 nM | 3.97 µM | 16.7 | 60.5 µM
COc1ccc(-c2cc(-c3ccc(Cl)cc3)nc(SCCCC(=O)NO)n2)cc1 | 1.68 | 3.45 µM | 902 | 6.66 µM | 1810 | 7.43 | 1.22 | 5.3 µM | 1430 nM | 7.06 µM | 406 | 2.11 | 537 nM | 2.23 µM | 654 | > 20.5 | 753 nM | > 22.5 µM | 0.237 | 1 µM
O=c1cc(N2CCN(CCCCCOc3cc(O)c4c(=O)cc(-c5ccccc5)oc4c3)CC2)c2ccccc2o1 | 48.3 | > 100 µM | > 100000 | > 100 µM | 83100 | > 100 | 13.1 | > 100 µM | 218 nM | 0.475 µM | > 100000 | > 100 | > 100000 nM | > 100 µM | 45400 | > 100 | > 100000 nM | > 100 µM | 50.8 | > 100 µM
O=C1CC(=O)N(C(=O)c2nn(-c3ccc(Cl)cc3)cc2O)N1 | 4.17 | > 100 µM | 500 | > 100 µM | 1240 | > 100 | 1.84 | > 100 µM | 493 nM | > 100 µM | 1310 | 6.16 | 170 nM | > 100 µM | 494 | > 100 | 147 nM | > 100 µM | 0.529 | > 100 µM
COc1cc(N2CCC(N3CCN(C)CC3)CC2)ccc1Nc1ncnc(Nc2ccccc2S(=O)(=O)C(C)C)n1 | 13.2 | 36.9 µM | 2290 | 11.1 µM | 2360 | 23.5 | 3.31 | 18.5 µM | 8100 nM | 36.6 µM | 7330 | 28.1 | 4550 nM | 24 µM | 2890 | 29.8 | 4340 nM | 19.1 µM | 2.62 | 12.6 µM
C/C(=N\Nc1cc(C)c2ccccc2n1)c1ccccn1 | < 0.0445 | 2.15 µM | 70 | 1.37 µM | 89.4 | 1.16 | < 0.0283 | 1.66 µM | 172 nM | 8.49 µM | < 19.4 | 3.51 | – | 0.499 µM | 76.2 | 7.57 | 36.8 nM | 1.16 µM | < 0.0377 | 0.903 µM
CCN(Cc1ccccc1)c1ccc(CO)c(Cl)c1 | 8.33 | 34.5 µM | 963 | 79.5 µM | 338 | 25.9 | 21.2 | > 100 µM | 9440 nM | > 86 µM | 658 | 3.62 | 1000 nM | > 56 µM | 19800 | > 100 | 1000 nM | 50.1 µM | 6.5 | > 100 µM
COc1cc(Nc2nc3ccccc3nc2NS(=O)(=O)c2ccc(NC(=O)c3ccc(C)c(OC)c3)cc2)cc(OC)c1 | – | > 100 µM and 37.7 µM and > 8.5 µM | – | 25.9 µM and > 100 µM and > 9.23 µM | – | > 100 | – | 46.2 µM and > 100 µM and > 7 µM | 2270 nM and 12500 nM and 1330 nM | 17.3 µM and 58.9 µM and > 10 µM | – | – | 2030 nM and 8730 nM and 1080 nM | 9.85 µM and 33.6 µM and > 5.22 µM | – | > 100 | 3710 nM and 12000 nM and 2270 nM | 34.7 µM and 33.5 µM and > 10 µM | – | 9.07 µM and 46.1 µM and > 5.04 µM
O=C1NC(=O)C(c2ccccc2Cl)=C1Nc1cc(Cl)c(O)c(Cl)c1 | > 25 | > 25 µM | 14500 | > 25 µM | > 13800 | > 25 | > 25 | > 25 µM | – | – | 9700 | 24.9 | > 25000 nM | > 25 µM | > 21500 | > 25 | 13300 nM | > 25 µM | > 23.4 | > 25 µM
